Measured values as given in patent publication US20140113091A1, “MEDICAL SUPPLY” (Toray Industries, Inc., priority 2011, published 2014).

Tested on: blood collected from volunteers
Assay: Measurement of whole blood clotting time (Sonoclot, ACT ONSET value)
Set-up: species or system human
Experimental: To a cuvette (NON-ACTIVATED CLOTTING TEST KIT), 18 μL of physiological saline was placed, and 14.8 μL of calcicol was added thereto, followed by further adding 342 μL of blood supplemented with citric acid. Thereafter, the measurement using Sonoclot blood coagulation/platelet function analyzer (IMI Co., Ltd.) was carried out to define the obtained ACT ONSET value as whole blood clotting time.

Q: Which “whole blood clotting time” value (2 μM argatroban solution) does the source give for `CC1CNc2c(cccc2S(=O)(=O)N[C@@H](CCCNC(=N)N)C(=O)N2CC[C@@H](C)C[C@@H]2C(=O)O)C1` (mixture of isomers) [argatroban] here?
A: 531 s

Q: What about the “whole blood clotting time” value (10 μM argatroban solution) of the same compound?
A: 746 s

Q: What about the “whole blood clotting time” value (20 μM argatroban solution) of the same compound?
A: 849 s
